Starred links: 1 amine or outer side, 2 acyl side, 3 side chain; linkers in the order of their positions; H or OH if unused. Positions of bridges follow the written chain, without caps; N, C: chain ends. Non-standard residues stand in square brackets, D forms with d. Residues, ends and D or L forms follow the SMILES beside them. *: point of attachment. hPhe(3-Cl-4-CF3) = N[C@@H](CCc1ccc(C(F)(F)F)c(Cl)c1)C(=O)O; X28 = CCCCOc1cc(CC[C@H](N[*:1])C(=O)[*:2])cc(Cl)c1Cl; NMeAla(4-thiazolyl) = CN[C@@H](Cc1cscn1)C(=O)O; NMePhe(4-Me) = CN[C@@H](Cc1ccc(C)cc1)C(=O)O; NMedβ3hAla = C[C@H](CC(=O)[*:2])N(C)[*:1]; NMeAla(cPent) = CN[C@@H](CC1CCCC1)C(=O)O; hPhe(4-F) = N[C@@H](CCc1ccc(F)cc1)C(=O)O; NMeGly(cPent) = CN[C@H](C(=O)O)C1CCCC1; X21 = O=C(CN(c1cccc(Cl)c1)[*:1])[*:2]; NMeGly(cBu) = CN[C@H](C(=O)O)C1CCC1; NMeCha = CN[C@@H](CC1CCCCC1)C(=O)O; NMeAhp(2) = CCCCC[C@H](NC)C(=O)O; NMeChg = CN[C@H](C(=O)O)C1CCCCC1; NMeF = CN[C@@H](Cc1ccccc1)C(=O)O; NMeI = CC[C@H](C)[C@H](NC)C(=O)O; Piperidide(4-Me) = CC1CCN(*)CC1; NMeD = CN[C@@H](CC(=O)O)C(=O)O; NMeL = CN[C@@H](CC(C)C)C(=O)O; NMeNle = CCCC[C@H](NC)C(=O)O; NPrAla = CCCN[C@@H](C)C(=O)O; d(β3hP) = O=C(O)C[C@H]1CCCN1; NMeV = CN[C@H](C(=O)O)C(C)C; NMeAbu = CC[C@H](NC)C(=O)O; NMeS = CN[C@@H](CO)C(=O)O; Iva = CC[C@](C)(N)C(=O)O; Morpholide = C1CN(*)CCO1; NMeA = CN[C@@H](C)C(=O)O; NMeAib = CNC(C)(C)C(=O)O; Piperidide = C1CCN(*)CC1; Pyrrolidide = C1CCN(*)C1; Ac5c = NC1(C(=O)O)CCCC1; Aze = O=C(O)[C@@H]1CCN1; Cyclobutyl = C1CC(*)C1; Sar = CNCC(=O)O
How the values were obtained:
[1] = system: Human pancreatic cancer cell line AsPC-1; assay: Measurement of AsPC-1 cell growth inhibition (AsPC-1 CGI); assay type: cell-based; conditions: 96 h
In short: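 AsPC-1 cells in 15% FBS RPMI-1640 were exposed to test compound for 96 hours at 37° C, with CellTiter-Glo as endpoint.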

[2] = target: T1, Kras and SOS1 (biotin-tagged human Kras loaded with GDP, His-tagged human SOS1) (Homo sapiens, UniProt P01116, G12D); assay: Protein-protein interaction inhibition between Kras and SOS1 (KrasGl2D-SOS PPI) using AlphaScreen; assay type: binding; conditions: AlphaScreen; biotin-tagged human Kras loaded with GDP, His-tagged human SOS1; read-out: KRAS G12D-SOS PPI IC50
T1 construct: made in house; host or cells: E. coli (stated for Kras only)
T1 sequence (P01116 1-188 isoform P01116-2 G12D): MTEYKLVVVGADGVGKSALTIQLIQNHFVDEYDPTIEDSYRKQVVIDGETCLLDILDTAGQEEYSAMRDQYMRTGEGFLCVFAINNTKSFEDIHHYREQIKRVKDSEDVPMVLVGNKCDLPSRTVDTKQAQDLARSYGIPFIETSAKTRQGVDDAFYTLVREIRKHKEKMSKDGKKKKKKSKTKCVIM
In short: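 AlphaScreen format: Ni donor beads capture His-SOS1, streptavidin acceptor beads capture biotinylated Kras (E. coli-expressed, GDP-loaded post-purification). Excite 680 nm, read 520-620 nm.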

| SMILES | IC50 [1] [nM] | IC50 [2] [nM] |
| --- | --- | --- |
| CC[C@H](C)[C@@H]1NC(=O)[C@H](C)N(C)C(=O)C[C@@H](C(=O)N2CCCCC2)N(C)C(=O)[C@H](C2CCC2)N(C)C(=O)C(C)(C)N(C)C(=O)CN(c2cccc(Cl)c2)C(=O)[C@H](CCc2ccc(C(F)(F)F)c(Cl)c2)NC(=O)CN(C)C(=O)[C@H](C2CCC2)N(C)C(=O)[C@@H]2CCN2C(=O)[C@H](C)N(C)C1=O [Compound 2146] ([NMeA]I[NMeA][Aze][NMeGly(cBu)][Sar][hPhe(3-Cl-4-CF3)][X21][NMeAib][NMeGly(cBu)][NMeD]-Piperidide; lactam N-11) | > 500 | 5.1 |
| CCCCOc1cc(CC[C@@H]2NC(=O)CN(C)C(=O)[C@H](CC3CCCCC3)N(C)C(=O)CN(C)C(=O)CN(C)C(=O)[C@H]([C@@H](C)CC)NC(=O)[C@H](C)N(C)C(=O)C[C@@H](C(=O)N3CCCCC3)N(C)C(=O)[C@H](C(C)C)N(C)C(=O)C3(CCCC3)NC(=O)[C@@H]3CCCN3C2=O)cc(Cl)c1Cl [Compound 2083] ([NMeA]I[Sar][Sar][NMeCha][Sar][X28]P[Ac5c][NMeV][NMeD]-Piperidide; lactam N-11) | > 500 | 52 |
| CC[C@H](C)[C@@H]1NC(=O)[C@H](CC(C)C)N(C)C(=O)C[C@H]2CCCN2C(=O)[C@H](C(C)C)N(C)C(=O)C2(CCCC2)NC(=O)[C@@H]2CCCN2C(=O)[C@H](CCc2ccc(C(F)(F)F)c(Cl)c2)NC(=O)CN(C)C(=O)[C@H](CC2CCCCC2)N(C)C(=O)[C@@H]2CCN2C(=O)[C@H](C)N(C)C1=O [Compound 1332] (cyclo([Ac5c][NMeV][d(β3hP)][NMeL]I[NMeA][Aze][NMeCha][Sar][hPhe(3-Cl-4-CF3)]P)) | 100 to 500 | 23 |
| CC[C@H](C)[C@@H]1NC(=O)[C@H](C)N(C)C(=O)C[C@@H](C(=O)N2CCCC2)N(C)C(=O)[C@H](C2CCCCC2)N(C)C(=O)C2(CCCC2)NC(=O)[C@@H]2CCCN2C(=O)[C@H](CCc2ccc(C(F)(F)F)c(Cl)c2)NC(=O)CN(C)C(=O)[C@H](CC2CCCCC2)N(C)C(=O)CN(C)C(=O)CN(C)C1=O [Compound 1720] ([NMeA]I[Sar][Sar][NMeCha][Sar][hPhe(3-Cl-4-CF3)]P[Ac5c][NMeChg][NMeD]-Pyrrolidide; lactam N-11) | 50 to 100 | 0.58 |
| CC[C@H](C)[C@@H]1NC(=O)[C@H](CC(C)C)N(C)C(=O)C[C@@H](C(=O)N2CCCCC2)N(C)C(=O)[C@H](C2CCCCC2)N(C)C(=O)C2(CCCC2)NC(=O)[C@@H]2CCCN2C(=O)[C@H](CCc2ccc(C(F)(F)F)c(Cl)c2)NC(=O)CN(C)C(=O)[C@H](COC2CCC2)N(C)C(=O)CN(C)C(=O)CN(C)C1=O [Compound 309] ([NMeL]I[Sar][Sar][NMeS](Cyclobutyl)[Sar][hPhe(3-Cl-4-CF3)]P[Ac5c][NMeChg][NMeD]-Piperidide; lactam N-11) | 100 to 500 | 0.75 |
| CC[C@H](C)[C@@H]1NC(=O)[C@H](CC(C)C)N(C)C(=O)C[C@@H](C(=O)N2CCC(C)CC2)N(C)C(=O)[C@H](C2CCCCC2)N(C)C(=O)C2(CCCC2)NC(=O)[C@@H]2CCCN2C(=O)[C@H](CCc2ccc(C(F)(F)F)c(Cl)c2)NC(=O)CN(C)C(=O)[C@H](CC2CCCCC2)N(C)C(=O)CN(C)C(=O)CN(C)C1=O [Compound 1347] ([NMeL]I[Sar][Sar][NMeCha][Sar][hPhe(3-Cl-4-CF3)]P[Ac5c][NMeChg][NMeD]-{Piperidide(4-Me)}; lactam N-11) | 100 to 500 | 1.3 |
| CCCCC[C@H]1C(=O)N[C@@H]([C@@H](C)CC)C(=O)N[C@@H](C)C(=O)N2CC[C@H]2C(=O)N(C)[C@@H](C2CCCC2)C(=O)N(C)CC(=O)N[C@@H](CCc2ccc(C(F)(F)F)c(Cl)c2)C(=O)N2CCC[C@H]2C(=O)NC2(CCCC2)C(=O)N(C)[C@@H](C2CCCC2)C(=O)N(C)[C@H](C(=O)N2CCOCC2)CC(=O)N1C [Compound 11] ([NMeAhp(2)]IA[Aze][NMeGly(cPent)][Sar][hPhe(3-Cl-4-CF3)]P[Ac5c][NMeGly(cPent)][NMeD]-Morpholide; lactam N-11) | 50 to 100 | 1.5 |
| CCCC[C@H]1C(=O)N(C)CC(=O)N[C@@H](CCc2ccc(C(F)(F)F)c(Cl)c2)C(=O)N2CCC[C@H]2C(=O)NC2(CCCC2)C(=O)N(C)[C@@H](C2CCCCC2)C(=O)N(C)[C@H](C(=O)N2CCCCC2)CC(=O)N(C)[C@@H](CC(C)C)C(=O)N[C@@H]([C@@H](C)CC)C(=O)N(C)CC(=O)N(C)CC(=O)N1C [Compound 1832] ([NMeL]I[Sar][Sar][NMeNle][Sar][hPhe(3-Cl-4-CF3)]P[Ac5c][NMeChg][NMeD]-Piperidide; lactam N-11) | 100 to 500 | 1 |
| CC[C@H](C)[C@@H]1NC(=O)[C@H](CC(C)C)N(C)C(=O)C[C@@H](C(=O)N2CCCCC2)N(C)C(=O)[C@H](C2CCCCC2)N(C)C(=O)[C@](C)(CC)NC(=O)[C@@H]2CCCN2C(=O)[C@H](CCc2ccc(C(F)(F)F)c(Cl)c2)NC(=O)CN(C)C(=O)[C@H](CC2CCCCC2)N(C)C(=O)CN(C)C(=O)CN(C)C1=O [Compound 1302] ([NMeL]I[Sar][Sar][NMeCha][Sar][hPhe(3-Cl-4-CF3)]P[Iva][NMeChg][NMeD]-Piperidide; lactam N-11) | 100 to 500 | 0.75 |
| CC[C@H](C)[C@@H]1NC(=O)[C@H](CC)N(C)C(=O)C[C@@H](C(=O)N2CCOCC2)N(C)C(=O)[C@H](C2CCCCC2)N(C)C(=O)C2(CCCC2)NC(=O)[C@@H]2CCCN2C(=O)[C@H](CCc2ccc(C(F)(F)F)c(Cl)c2)NC(=O)CN(C)C(=O)[C@H](CC2CCCC2)N(C)C(=O)CN(C)C(=O)CN(C)C1=O [Compound 1999] ([NMeAbu]I[Sar][Sar][NMeAla(cPent)][Sar][hPhe(3-Cl-4-CF3)]P[Ac5c][NMeChg][NMeD]-Morpholide; lactam N-11) | 100 to 500 | 0.82 |
| CC[C@H](C)[C@@H]1NC(=O)[C@H](CC(C)C)N(C)C(=O)C[C@@H](C(=O)N(C)C)N(C)C(=O)[C@H]([C@@H](C)CC)N(C)C(=O)C2(CCCC2)NC(=O)[C@H](Cc2cscn2)N(C)C(=O)[C@H](CCc2ccc(C(F)(F)F)c(Cl)c2)NC(=O)CN(C)C(=O)[C@H](Cc2ccc(C)cc2)N(C)C(=O)[C@@H]2CCN2C(=O)[C@H](C)N(C)C1=O [Compound 441] ([NMeL]I[NMeA][Aze][NMePhe(4-Me)][Sar][hPhe(3-Cl-4-CF3)][NMeAla(4-thiazolyl)][Ac5c][NMeI][NMeD]-NMe2; lactam N-11) | 20 to 50 | 0.73 |
| CCCN1C(=O)C[C@@H](C)N(C)C(=O)[C@H](C(C)C)N(C)C(=O)C2(CCCC2)NC(=O)[C@@H]2CCCN2C(=O)[C@H](CCc2ccc(C(F)(F)F)c(Cl)c2)NC(=O)CN(C)C(=O)[C@H](CC2CCCCC2)N(C)C(=O)CN(C)C(=O)CN(C)C(=O)[C@H]([C@@H](C)CC)NC(=O)[C@@H]1C [Compound 824] (cyclo([Ac5c][NMeV][NMedβ3hAla][NPrAla]I[Sar][Sar][NMeCha][Sar][hPhe(3-Cl-4-CF3)]P)) | 100 to 500 | 5.6 |
| CC[C@H](C)[C@@H]1NC(=O)[C@H](CC(C)C)N(C)C(=O)C[C@@H](C)N(C)C(=O)[C@H](C2CCCCC2)N(C)C(=O)C2(CCCC2)NC(=O)[C@@H]2CCCN2C(=O)[C@H](CCc2ccc(C(F)(F)F)c(Cl)c2)NC(=O)CN(C)C(=O)[C@H](Cc2ccc(C)cc2)N(C)C(=O)[C@@H]2CCN2C(=O)[C@H](C)N(C)C1=O [Compound 1673] (cyclo([Ac5c][NMeChg][NMedβ3hAla][NMeL]I[NMeA][Aze][NMePhe(4-Me)][Sar][hPhe(3-Cl-4-CF3)]P)) | 100 to 500 | 5.4 |
| CC[C@H](C)[C@@H]1NC(=O)[C@H](C)N(C)C(=O)C[C@@H](C(=O)N2CCCCC2)N(C)C(=O)[C@H](C2CCCCC2)N(C)C(=O)C2(CCCC2)NC(=O)[C@@H]2CCCN2C(=O)[C@H](CCc2ccc(F)cc2)NC(=O)CN(C)C(=O)[C@H](CC2CCCCC2)N(C)C(=O)CN(C)C(=O)CN(C)C1=O [Compound 618] ([NMeA]I[Sar][Sar][NMeCha][Sar][hPhe(4-F)]P[Ac5c][NMeChg][NMeD]-Piperidide; lactam N-11) | 100 to 500 | 2.4 |
| CC[C@H](C)[C@@H]1NC(=O)[C@H](CC(C)C)N(C)C(=O)C[C@@H](C(=O)N(C)C)N(C)C(=O)[C@H](C2CCCC2)N(C)C(=O)C2(CCCC2)NC(=O)[C@H](Cc2ccccc2)N(C)C(=O)[C@H](CCc2ccc(C(F)(F)F)c(Cl)c2)NC(=O)CN(C)C(=O)[C@H](CC2CCCCC2)N(C)C(=O)[C@@H]2CCN2C(=O)[C@H](C)N(C)C1=O [Compound 854] ([NMeL]I[NMeA][Aze][NMeCha][Sar][hPhe(3-Cl-4-CF3)][NMeF][Ac5c][NMeGly(cPent)][NMeD]-NMe2; lactam N-11) | 100 to 500 | 11 |
| CC[C@H](C)[C@@H]1NC(=O)[C@H](CC(C)C)N(C)C(=O)C[C@@H](C(=O)N2CCCCC2)N(C)C(=O)[C@H](C(C)C)N(C)C(=O)C2(CCCC2)NC(=O)[C@@H]2CCCN2C(=O)[C@H](CCc2ccc(C(F)(F)F)c(Cl)c2)NC(=O)CN(C)C(=O)[C@H](Cc2ccc(C)cc2)N(C)C(=O)CN(C)C(=O)CN(C)C1=O [Compound 1594] ([NMeL]I[Sar][Sar][NMePhe(4-Me)][Sar][hPhe(3-Cl-4-CF3)]P[Ac5c][NMeV][NMeD]-Piperidide; lactam N-11) | 100 to 500 | 3.2 |
| CC(C)C[C@H]1C(=O)N[C@@H](C(C)C)C(=O)N(C)CC(=O)N(C)CC(=O)N(C)[C@@H](CC2CCCCC2)C(=O)N(C)CC(=O)N[C@@H](CCc2ccc(C(F)(F)F)c(Cl)c2)C(=O)N2CCC[C@H]2C(=O)NC2(CCCC2)C(=O)N(C)[C@@H](C2CCCCC2)C(=O)N(C)[C@H](C(=O)N2CCCCC2)CC(=O)N1C [Compound 1798] ([NMeL]V[Sar][Sar][NMeCha][Sar][hPhe(3-Cl-4-CF3)]P[Ac5c][NMeChg][NMeD]-Piperidide; lactam N-11) | 50 to 100 | 1 |
